According to patent US20120088667A1, “SAFENING AGENT” (priority 2009, published 2012):
Where two headings read alike, the source gives them in different places.

Legend:
[1] = test system: Winter Barley cv Saffron; assay: Safening of fertilisers, pot trial: phytotoxicity and vigour scores, winter barley; format: in vivo; conditions: for Phytotoxicity (0-9) (0 = Dead) + 14 Days / Phytotoxicity (0-9) (0 = Dead) + 28 Days: score 0-9, 0 = dead; for Vigour (0-9) (9 = Most Vigour) + 14 days / Vigour (0-9) + 28 Days: score 0-9
Source text: (§1) The safening system and the fertilizer were applied either simultaneously or sequentially.
(§2) Sprayed: mid-tillering phase (GS23). Winter Wheat: cv Limerick, sown 4 Jun. […] Sprayed: mid-tillering phase (GS23). Lettuce: cv Set, sown 10 Jul. 2008, at one seed per pot, in John Innes No 1 compost. Date of spraying: 30 July; Dates of measurement: 7 August, 14 August, 28 August. Sprayed: 2 true leaf stage.

[2] = test system: Winter Wheat cv Limerick; assay: Safening of fertilisers, pot trial: phytotoxicity and vigour scores, winter wheat; format: in vivo; conditions: for Phytotoxicity (0-9) (0 = Dead) + 14 Days / Phytotoxicity (0-9) (0 = Dead) + 28 Days: score 0-9, 0 = dead; for Vigour (0-9) (9 = Most Vigour) + 14 days / Vigour (0-9) + 28 Days: score 0-9
Source text: as §1, §2

[3] = test system: Lettuce cv Set; assay: Safening of fertilisers, pot trial: phytotoxicity and vigour scores, lettuce; format: in vivo
Source text: as §1, §2

[4] = test system: Oilseed rape cv Excalibur; conditions: for Greenness (0-9) (9 = Deeper Green) + 14 Days / Vigour (0-9) (9 = Most Vigour) + 14 days / Greenness (0-9) + 28 Days / Vigour (0-9) + 28 Days: score 0-9
Source text: (§3) Safening systems were applied to crops of oilseed rape and winter treated with various herbicides (Bifenox (with insecticide), Carbetamide, Propaquizafop, Chlorotoluron, Isoproturon, Flumioxazin). The safening system and the herbicide were applied to the crops either simultaneously or sequentially.
(§4) Oilseed rape: cv Excalibur, sown 26 Apr. 2008, at two seeds per 9 cm pot, sown in normal pH multi-purpose compost. Date of spraying: 6 June; Dates of measurement/scoring: 13 June, 20 June, 5 July. Winter wheat: cv Alchemy, sown 23 Apr. 2008, at seven seeds per 9 cm pot, sown in normal pH multi-purpose compost. Date of spraying: 24 May; Dates of measurement/scoring: 31 May, 7 June, 21 June. SAF: at least one from class (f) each at <3 g/l, plus at least one from class (c).
(§5) Statistical Layout: Randomised Complete Block trials, under glasshouse conditions, United Kingdom.

[5] = test system: Winter wheat cv Alchemy; assay: Safening of herbicides (Chlorotoluron, Isoproturon, Flumioxazin), winter wheat
Source text: as §3, §4, §5

[6] = test system: Glycine max (Soybean); assay: Root nodulation and safening, soybean, compost of normal pH (Example 7.2); conditions: compost of normal pH (6.5)
Source text: (§6) The safener/safening system and the fertiliser were applied to the crops either simultaneously or sequentially.
(§7) Co=100% Cobalt Sulphate (20 g per litre and per hectare). FF1=20 g per litre Cobalt Sulphate (as per Co above) plus “Miracle-Gro” at xl recommended rate (applied at 15 g per 2.5 sq metres). Miracle-Gro contains: 24% N, 4% P, 13% K, plus 0.02% B, 0.03% Cu, 0.19% Fe, 0.05% Mn, 0.001% Mo and 0.03% Zn. FF2=20 g per litre Cobalt Sulphate plus Miracle-Gro at ×2 recommended rate. SAF: at least one from class (f) each at <3 g/l, plus at least one from class (c).
Dates as per Example 7.1 above, but sown in compost of normal pH (6.5). Each treatment represents the mean values for 12 plants, within four replicates. Sowing density 110 kg/ha. Standard inoculant applied at sowing.

[7] = test system: NAVY BEAN cv Mogex; assay: Root nodulation and safening, navy bean, compost of normal pH (Example 7.4); conditions: compost of normal pH (6.5)
Source text: as §6, §7
NAVY BEAN cv Mogex. Scored/Counted+28 Days after Spraying. Dates as per Example 7.3 Above, but sown in compost of normal pH (6.5). Each treatment represents the mean value from 12 plants, within four replicates. No inoculum applied.

[8] = test system: PEA cv Ragtime; assay: Root nodulation, rooting and safening, pea, compost of low pH (Examples 7.5 and 7.7)
Source text: as §6, §7
PEA—TRIAL 5—cv Ragtime. Scored/Counted+28 Days after Spraying. Sown in Compost of Low pH (5.0-5.5) on 28 Apr. 2008. Spray Date (VC)=26 May, V1 Date=14 June. Scored/Measured on 9 July. […] No inoculum applied.
Sowing details etc as per Example 7.5.

[9] = test system: PEA cv Ragtime; assay: Root nodulation and safening, pea, compost of normal pH (Example 7.6); conditions: compost of normal pH (6.5)
Source text: as §6, §7
PEA—TRIAL 7.6—cv Ragtime. Dates as per Example 7.5 above, but sown in compost of normal pH (6.5). […] No inoculum was applied.

[10] = Table 1.1, winter barley, phosphite fertiliser (KP)
[11] = Table 1.2, winter barley, KP/ATS
[12] = Table 1.3, winter barley, general fertilisers
[13] = Table 1.4, winter wheat, phosphite fertiliser (KP)
[14] = Table 1.5, winter wheat, KP/ATS
[15] = Table 1.6, winter wheat, general fertilisers
[16] = Table 1.7, lettuce, phosphite fertiliser (KP), score 0-9, 0 = dead
[17] = Table 1.7, lettuce, phosphite fertiliser (KP), score 0-9
[18] = Table 1.8, lettuce, KP/ATS, score 0-9
[19] = Table 1.9, lettuce, general fertilisers, score 0-9, 0 = Dead
[20] = herbicide Bifenox (with insecticide), Table 3.1
[21] = herbicides Carbetamide and Propaquizafop, Table 3.2
[22] = +28 days, herbicide Bifenox (with insecticide), Table 3.1
[23] = +28 days, herbicides Carbetamide and Propaquizafop, Table 3.2
[24] = compost of low pH (5.0-5.5), V1, score 0-9
[25] = low pH compost, application at V1, 0-9 scale

Compound: Nc1ccccc1C(=O)O [AN, anthranilic acid]
- Phytotoxicity (0-9) (0 = Dead) + 14 Days [1, 10]: 7.5
- Phytotoxicity (0-9) (0 = Dead) + 28 Days [1, 10]: 8.0
- Vigour (0-9) (9 = Most Vigour) + 14 days [1, 10]: 7.0
- Vigour (0-9) + 28 Days [1, 10]: 8.0
- Phytotoxicity (0-9) (0 = Dead) + 14 Days ([1]; Table 1.2, winter barley, KP + ammonium thiosulphate (KP/ATS)): 7.5
- Phytotoxicity (0-9) (0 = Dead) + 28 Days [1, 11]: 8.0
- Vigour (0-9) (9 = Most Vigour) + 14 days [1, 11]: 7.0
- Vigour (0-9) + 28 Days [1, 11]: 8.0
- Phytotoxicity (0-9) (0 = Dead) + 14 Days ([1]; Table 1.3, winter barley, general NPK fertilisers (GEN + KP, GENEX)): 7.5
- Phytotoxicity (0-9) (0 = Dead) + 28 Days [1, 12]: 8.0
- Vigour (0-9) (9 = Most Vigour) + 14 days [1, 12]: 7.0
- Vigour (0-9) + 28 Days [1, 12]: 8.0
- Phytotoxicity (0-9) (0 = Dead) + 14 Days [2, 13]: 7.5
- Phytotoxicity (0-9) (0 = Dead) + 28 Days [2, 13]: 8.0
- Vigour (0-9) (9 = Most Vigour) + 14 days [2, 13]: 8.0
- Vigour (0-9) + 28 Days [2, 13]: 8.5
- Phytotoxicity (0-9) (0 = Dead) + 28 Days [2, 14]: 8.0
- Vigour (0-9) (9 = Most Vigour) + 14 days [2, 14]: 8.0
- Vigour (0-9) + 28 Days [2, 14]: 8.5
- Phytotoxicity (0-9) (0 = Dead) + 14 Days ([2]; Table 1.5, winter wheat, thiosulphate and phosphite fertilisers (KP/ATS)): 7.5
- Phytotoxicity (0-9) (0 = Dead) + 14 Days ([2]; Table 1.6, winter wheat, general NPK fertilisers (GEN + KP, GENEX)): 7.5
- Phytotoxicity (0-9) (0 = Dead) + 28 Days [2, 15]: 8.0
- Vigour (0-9) (9 = Most Vigour) + 14 days [2, 15]: 8.0
- Vigour (0-9) + 28 Days [2, 15]: 8.5
- Phytotoxicity (0-9) (0 = Dead) + 14 Days [3, 16]: 7.0
- Phytotoxicity (0-9) (0 = Dead) + 28 Days [3, 16]: 7.0
- Vigour (0-9) (9 = Most Vigour) + 14 days [3, 17]: 8.0
- Vigour (0-9) + 28 Days [3, 17]: 8.0
- Phytotoxicity (0-9) (0 = Dead) + 14 Days ([3]; Table 1.8, lettuce, KP + ammonium thiosulphate (KP/ATS), score 0-9, 0 = dead): 7.0
- Phytotoxicity (0-9) (0 = Dead) + 28 Days ([3]; Table 1.8, lettuce, KP/ATS, score 0-9, 0 = dead): 7.0
- Vigour (0-9) (9 = Most Vigour) + 14 days [3, 18]: 8.0
- Vigour (0-9) + 28 Days [3, 18]: 8.0
- Phytotoxicity (0-9) (0 = Dead) + 14 Days [3, 19]: 7.0
- Phytotoxicity (0-9) (0 = Dead) + 28 Days [3, 19]: 7.0
- Vigour (0-9) (9 = Most Vigour) + 14 days ([3]; Table 1.9, lettuce, general fertilisers, score 0-9, 9 = Most Vigour): 8.0
- Vigour (0-9) + 28 Days ([3]; Table 1.9, lettuce, general fertilisers, score 0-9): 8.0
- Phytotoxicity (0-9) (0 = Dead) + 14 Days ([4]; score 0-9, 0 = dead, herbicide Bifenox (with insecticide), Table 3.1): 9.0
- Phytotoxicity (0-9) (0 = Dead) + 14 Days ([4]; score 0-9, 0 = dead, herbicides Carbetamide and Propaquizafop, Table 3.2): 9.0
- Phytotoxicity (0-9) (0 = Dead) + 28 Days ([4]; score 0-9, 0 = dead, +28 days, herbicide Bifenox (with insecticide), Table 3.1): 8.0
- Phytotoxicity (0-9) + 28 Days ([4]; score 0-9, 0 = dead, +28 days, herbicides Carbetamide and Propaquizafop, Table 3.2): 8.0
- Greenness (0-9) (9 = Deeper Green) + 14 Days [4, 20]: 8.0
- Vigour (0-9) (9 = Most Vigour) + 14 days [4, 20]: 9.0
- Greenness (0-9) (9 = Deeper Green) + 14 Days [4, 21]: 8.0
- Vigour (0-9) (9 = Most Vigour) + 14 days [4, 21]: 9.0
- Greenness (0-9) + 28 Days [4, 22]: 8.0
- Vigour (0-9) + 28 Days [4, 22]: 8.0
- Greenness (0-9) + 28 Days [4, 23]: 8.0
- Vigour (0-9) + 28 Days [4, 23]: 8.0
- Greenness (0-9) (9 = Deeper Green) + 14 Days ([5]; Table 3.3, no herbicide): 8.0
- Phytotoxicity (0-9) (0 = Dead) + 14 Days ([5]; Table 3.3, no herbicide): 9.0
- Vigour (0-9) (9 = Most Vigour) + 14 days ([5]; Table 3.3, no herbicide): 9.0
- Greenness (0-9) + 28 Days ([5]; Table 3.3, no herbicide): 8.0
- Phytotoxicity (0-9) + 28 Days ([5]; Table 3.3, no herbicide): 8.0
- Vigour (0-9) + 28 Days ([5]; Table 3.3, no herbicide): 8.0
- Greenness (0-9) (9 = Deeper Green) + 14 Days ([5]; Table 3.4, no herbicide): 8.0
- Phytotoxicity (0-9) (0 = Dead) + 14 Days ([5]; Table 3.4, no herbicide): 9.0
- Vigour (0-9) (9 = Most Vigour) + 14 days ([5]; Table 3.4, no herbicide): 9.0
- Greenness (0-9) + 28 Days ([5]; Table 3.4, no herbicide): 8.0
- Phytotoxicity (0-9) + 28 Days ([5]; Table 3.4, no herbicide): 8.0
- Vigour (0-9) + 28 Days ([5]; Table 3.4, no herbicide): 8.0
- Greenness (0-9) (9 = Deeper Green) + 14 Days ([5]; Table 3.5, no herbicide): 8.0
- Phytotoxicity (0-9) (0 = Dead) + 14 Days ([5]; Table 3.5, no herbicide): 9.0
- Vigour (0-9) (9 = Most Vigour) + 14 days ([5]; Table 3.5, no herbicide): 9.0
- Greenness (0-9) + 28 Days ([5]; Table 3.5, no herbicide): 8.0
- Phytotoxicity (0-9) + 28 Days ([5]; Table 3.5, no herbicide): 8.0
- Vigour (0-9) + 28 Days ([5]; Table 3.5, no herbicide): 8.0
- Nodules Per Plant (V1) ([6]; V1, mean of 12 plants): 34.2
- Nodulation Score (0-9) (V1) ([6]; V1, score 0-9): 5.9
- Phyto-Toxicity Score (0-9) (V1) ([6]; V1, score 0-9): 8.0
- Vigour Score (0-9) (V1) ([6]; V1, score 0-9): 6.7
- Nodules Per Plant (VC) ([6]; VC): 33.3
- Nod Score (0-9) (VC) ([6]; VC, score 0-9): 5.8
- Nodules Per Plant (V1) ([7]; V1, +28 days after spraying, no inoculum): 32.2
- Nodulation Score (0-9) (V1) ([7]; V1, score 0-9): 5.0
- Phyto-Toxicity Score (0-9) (V1) ([7]; V1, score 0-9): 7.0
- Vigour Score (0-9) (V1) ([7]; V1, score 0-9): 7.2
- Nodules Per Plant (VC) ([7]; VC): 33.2
- Nod Score (0-9) (VC) ([7]; VC, score 0-9): 5.1
- Nodules Per Plant (V1) ([8]; compost of low pH (5.0-5.5), V1, +28 days after spraying, no inoculum): 16.8
- Nodulation Score (0-9) (V1) [8, 24]: 5.0
- Phyto-Toxicity Score (0-9) (V1) [8, 24]: 5.2
- Vigour Score (0-9) (V1) [8, 24]: 5.5
- Nodules Per Plant (VC) ([8]; compost of low pH (5.0-5.5), VC): 17.3
- Nod Score (0-9) (VC) ([8]; compost of low pH (5.0-5.5), VC, score 0-9): 5.2
- Nodules Per Plant (V1) ([8]; low pH compost, application at V1 (data from Example 7.5)): 16.8
- Nodulation Score (0-9) (V1) [8, 25]: 5.0
- Phyto-Toxicity Score (0-9) (V1) [8, 25]: 5.2
- Rooting Score (0-9) (V1) [8, 25]: 4.2
- Nodules Per Plant (V1) ([9]; V1, no inoculum): 17.2
- Nodulation Score (0-9) (V1) ([9]; V1, score 0-9): 5.2
- Phyto-Toxicity Score (0-9) (V1) ([9]; V1, score 0-9): 7.0
- Vigour Score (0-9) (V1) ([9]; V1, score 0-9): 6.9
- Nodules Per Plant (VC) ([9]; VC): 17.1
- Nod Score (0-9) (VC) ([9]; VC, score 0-9): 5.2
